Measurements taken from PubChem BioAssay AID330 (DTP/NCI, 2004).
Values joined by “and” are separate entries in the source; they are usually repeats but may differ in a detail not shown here. Identical values can stand only once. Inconclusive results and toxic doses are left out.

System: P388 leukemia ip, CD2F1 mice, survival T/C
Assay: NCI In Vivo Anticancer Drug Screen. Data for tumor model P388 Leukemia (intraperitoneal) in CD2F1 (CDF1) mice
Conditions: endpoint: median survival time, higher = longer survival
Summary of the method: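 Mice carrying the transplanted tumor received test compound or vehicle. Survival was recorded in each group, and the value is the treated-group measurement divided by that of the vehicle-treated control group.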

[1] = dose: 100.0 mg/kg/injection, schedule: Q01DX001 (ip), vehicle: saline with Tween-80
[2] = dose: 200.0 mg/kg/injection, schedule: Q01DX001 (ip), vehicle: saline with Tween-80

## COc1cccc2c1C(=O)c1c(O)c3c(c(O)c1C2=O)C[C@@](O)(C(=O)CO)C[C@@H]3OC1CC(N2CCCCC2)C(O)C(C)O1 (some centres undefined)
dose: 0.78 mg/kg/injection, schedule: Q01DX009 (ip), vehicle: water
  T/C: 151 % of control
dose: 1.2 mg/kg/injection, schedule: Q04DX003 (ip), vehicle: water
  T/C: 100 % of control
dose: 1.56 mg/kg/injection, schedule: Q01DX009 (ip), vehicle: water
  T/C: 184 % of control
dose: 2.4 mg/kg/injection, schedule: Q04DX003 (ip), vehicle: water
  T/C: 113 % of control
dose: 3.13 mg/kg/injection, schedule: Q01DX009 (ip), vehicle: water
  T/C: 190 % of control
dose: 4.7 mg/kg/injection, schedule: Q04DX003 (ip), vehicle: water
  T/C: 106 % of control
dose: 9.4 mg/kg/injection, schedule: Q04DX003 (ip), vehicle: water
  T/C: 155 % of control
dose: 37.5 mg/kg/injection, schedule: Q04DX003 (ip), vehicle: water
  T/C: 87 % of control

## O=P(c1ccccc1)(c1ccccc1)c1ccccc1.O=P(c1ccccc1)(c1ccccc1)c1ccccc1.O=P(c1ccccc1)(c1ccccc1)c1ccccc1.O=P(c1ccccc1)(c1ccccc1)c1ccccc1.[Fe+3].[O-][Cl+3]([O-])([O-])O
dose: 100.0 mg/kg/injection, schedule: Q04DX003 (ip), vehicle: saline with Tween-80
  T/C: 97 % of control
dose: 200.0 mg/kg/injection, schedule: Q04DX003 (ip), vehicle: saline with Tween-80
  T/C: 93 % of control

## O=C1OC2(c3ccc(O)cc3Oc3cc(O)ccc32)C2C3C=CC(C3)C12 (centres undefined)
dose: 60.0 mg/kg/injection, schedule: Q01DX005 (ip), vehicle: Klucel (hydroxypropylcellulose) (HPC)
  T/C: 100 % of control
dose: 120.0 mg/kg/injection, schedule: Q01DX005 (ip), vehicle: Klucel (hydroxypropylcellulose) (HPC)
  T/C: 104 % of control
dose: 240.0 mg/kg/injection, schedule: Q01DX005 (ip), vehicle: Klucel (hydroxypropylcellulose) (HPC)
  T/C: 100 % of control

## Oc1cccc(/C=N/N=C/c2cccc(O)c2O)c1O
dose: 50.0 mg/kg/injection, schedule: Q01DX009 (ip), vehicle: Klucel (hydroxypropylcellulose) (HPC)
  T/C: 96 % of control
dose: 100.0 mg/kg/injection, schedule: Q01DX009 (ip), vehicle: Klucel (hydroxypropylcellulose) (HPC)
  T/C: 93 % of control

## CC[As](CC)SC1OC(C2COC(C)(C)O2)C2OC(C)(C)OC12 (centres undefined)
dose: 12.5 mg/kg/injection, schedule: Q01DX009 (ip), vehicle: distilled water + Tween-80
  T/C: 120 % of control
dose: 25.0 mg/kg/injection, schedule: Q01DX009 (ip), vehicle: distilled water + Tween-80
  T/C: 123 % of control
dose: 50.0 mg/kg/injection, schedule: Q01DX009 (ip), vehicle: distilled water + Tween-80
  T/C: 120 % of control

## O=S(=O)(O)/[N+]([O-])=N/O
dose: 100.0 mg/kg/injection, schedule: Q04DX003 (ip), vehicle: saline
  T/C: 100 % of control
dose: 200.0 mg/kg/injection, schedule: Q04DX003 (ip), vehicle: saline
  T/C: 100 % of control
dose: 400.0 mg/kg/injection, schedule: Q04DX003 (ip), vehicle: saline
  T/C: 100 % of control

## Cn1c(=O)c2nc(-c3ccc(Cl)cc3)c(-c3ccc(Cl)cc3)nc2n(C)c1=O
dose: 50.0 mg/kg/injection, schedule: Q01DX001 (ip), vehicle: saline with Tween-80
  T/C: 102 % of control
[1]
  T/C: 102 % of control
[2]
  T/C: 110 % of control

## CSCC(CO)NC(=O)/C=C/c1c(C)[nH]c(=O)[nH]c1=O (centres undefined)
dose: 50.0 mg/kg/injection, schedule: Q01DX009 (ip), vehicle: other
  T/C: 86 % of control and 101 % of control
dose: 100.0 mg/kg/injection, schedule: Q01DX009 (ip), vehicle: other
  T/C: 89 % of control and 111 % of control
dose: 200.0 mg/kg/injection, schedule: Q01DX009 (ip), vehicle: other
  T/C: 94 % of control
dose: 400.0 mg/kg/injection, schedule: Q01DX009 (ip), vehicle: other
  T/C: 88 % of control

## O=c1cc(O)cc[nH]1
dose: 400.0 mg/kg/injection, schedule: Q01DX009 (ip), vehicle: saline
  T/C: 100 % of control and 96 % of control
dose: 600.0 mg/kg/injection, schedule: Q01DX009 (ip), vehicle: saline
  T/C: 101 % of control and 106 % of control

## COC(c1cc(C(O)(C(F)(F)F)C(F)(F)F)cc(C(OC)(C(F)(F)F)C(F)(F)F)c1)(C(F)(F)F)C(F)(F)F
dose: 100.0 mg/kg/injection, schedule: Q04DX003 (ip), vehicle: Klucel (hydroxypropylcellulose) (HPC)
  T/C: 100 % of control
dose: 200.0 mg/kg/injection, schedule: Q04DX003 (ip), vehicle: Klucel (hydroxypropylcellulose) (HPC)
  T/C: 100 % of control
dose: 400.0 mg/kg/injection, schedule: Q04DX003 (ip), vehicle: Klucel (hydroxypropylcellulose) (HPC)
  T/C: 92 % of control

## CC(C)=CCC(OC(=O)C=C(C)C)c1cc(O)c2c(O)ccc(O)c2c1O.[Co] (centres undefined)
[1]
  T/C: 103 % of control
[2]
  T/C: 101 % of control
dose: 400.0 mg/kg/injection, schedule: Q01DX001 (ip), vehicle: saline with Tween-80
  T/C: 113 % of control

## O=C(OCCOCCO)c1ccccc1-c1c2cc(I)c(=O)c(I)c-2oc2c(I)c(O)c(I)cc12
dose: 60.0 mg/kg/injection, schedule: Q01DX005 (ip), vehicle: saline
  T/C: 94 % of control
dose: 120.0 mg/kg/injection, schedule: Q01DX005 (ip), vehicle: saline
  T/C: 91 % of control
dose: 240.0 mg/kg/injection, schedule: Q01DX005 (ip), vehicle: saline
  T/C: 92 % of control
